# Reference: patent US7771652B2, “Combined use of an alkaline earth metal compound and a sterilizing agent to maintain osteoinduction properties of a demineralized bone matrix” (Novasterilis, Inc., priority 2008, dated 2010)
# Tested on: CFUs
# Assay: Reduction in CFUs with additive-containing supercritical carbon dioxide sterilant fluid
# Assay type: cell-based
# Conditions: additive in supercritical carbon dioxide under sterilization temperature and pressure conditions
# Excerpt: It has been observed that 6-log reductions in CFUs may be achieved in accordance with the present invention by subjecting materials to be sterilized under sterilization temperature and pressure conditions using an additive-containing supercritical carbon dioxide as a sterilant fluid, wherein the additive is carbonic anhydrase. Further, this process is enhanced where the sterilant fluid is agitated during the sterilization process.
substance,measurement,value
carbonic anhydrase,reductions in CFUs,6 log
